Reference: patent US11192850B2, “N-aryl oxamic acids” (Purdue Research Foundation, priority 2020, dated 2021)
Like-named read-outs stand apart in the source and are kept apart here.

Columns and labels:
[1] = target: mPTPB (Mycobacterium tuberculosis (strain ATCC 25618 / H37Rv), UniProt I6WXK4); type: biochemical
[2] = target: PTP1B (Homo sapiens (Human), UniProt P18031); assay: pNPP inhibition assay against PTP1B; type: biochemical
[3] = target: SHP2 (Homo sapiens (Human), UniProt Q06124); assay: pNPP inhibition assay against SHP2; type: biochemical
[4] = target: SHP1 (Homo sapiens (Human), UniProt P29350); assay: pNPP inhibition assay against SHP1; type: biochemical
[5] = target: TC-PTP (Homo sapiens (Human), UniProt P17706); assay: pNPP inhibition assay against TC-PTP; type: biochemical; conditions: pNPP at Km of the PTP
[6] = target: LYP (Homo sapiens (Human), UniProt Q9Y2R2); assay: pNPP inhibition assay against LYP; type: biochemical; conditions: pNPP at Km of the PTP
[7] = target: MKP5 (Homo sapiens (Human), UniProt Q9Y6W6); assay: pNPP inhibition assay against MKP5; type: biochemical; conditions: pNPP at Km of the PTP
[8] = target: LMPTP-1 (Homo sapiens (Human), UniProt P24666); type: biochemical
[9] = target: PTP-PEST (Homo sapiens (Human), UniProt Q05209); assay: pNPP inhibition assay against PTP-PEST; type: biochemical; conditions: pNPP at Km of the PTP
[10] = target: PTPγ (Homo sapiens (Human), UniProt P23470); assay: pNPP inhibition assay against PTPγ; type: biochemical; conditions: pNPP at Km of the PTP
[11] = target: mPTPA (Mycobacterium tuberculosis (strain ATCC 25618 / H37Rv), UniProt P9WIA1); assay: biochemical
[12] = Mouse liver microsomal stability; type: in vitro ADME; conditions: for Microsome Stability, % remaining: Mouse, after 60 min at 37° C.
Excerpt: A sufficient oral dosage must survive first-pass clearance through the liver before reaching its biological target. The majority of drugs/xenobiotics undergo phase I metabolism, mediated by the cytochrome P450 (CYP450) family of heme-thiolate proteins predominantly in the liver. Although mouse liver microsomal (MLM) stability studies are not a perfect substitute for in vivo metabolic clearance studies, but they serve as an initial […] model system that can correlate well with human liver microsomal (HLM) stability and in vivo activity in mice. To this end, compounds 4h, 4k, 4t, 4u, and 4v were allowed to react with mouse liver microsomes and the fraction of remaining parent compound over time was determined. […] Incorporation of fluorine into drug candidates generally improves their potency, bioavailability, and metabolic stability. In addition, fluorinated molecules are in general, nontoxic and mimic the corresponding nonfluorinated analogs in their stereoelectronic properties, so the drug's affinity for the receptor either remains the same or, in some cases increases. […] So, the loss of compounds tested here is attributed only to oxidative Phase I metabolism. The high microsomal stability of these compounds could be exploited pharmacologically.
Mouse (CD-1) pooled liver microsomes purchased from Fisher Scientific, IL, USA (0.5 mg/mL, Corning Gentest 3P, cat#452702), and the assay procedures were followed as previously reported. A solution of mouse liver microsomes and 1 mM of co-factor NADPH in 1 ml of phosphate buffer saline (pH=7.4) was prewarmed to 37° C. in an Eppendorf tube. Then 10 μL of a test solution (10 mM DMSO stock) was added to initiate the reaction. Verapamil-HCl was used as a positive control. […] The incubation mixture was kept at 37° C., and 50 μL aliquots were taken at times of 0, 5, 10, 15, 30 or 60 min. Each of the aliquot was quenched using 200 μL of ice-cold acetonitrile. The mixtures were vigorously vortexed and centrifuged to remove the precipitated protein and the supernatants were analyzed by an Agilent Technologies 6470 series, triple quadrupole LC/MS spectrometer to quantitate the remaining parent compound. The percent of the parent compound remaining was calculated from the formula: % parent compound remaining=(concentration at 60 min/concentration at 0 min)*100

[13] = Solubility observed for analogs (qualitative)
[14] = target: HePTP (Homo sapiens (Human), UniProt P35236); assay: pNPP inhibition assay against HePTP; type: biochemical; conditions: pNPP at Km of the PTP
[15] = target: FAP-1 (Homo sapiens (Human), UniProt Q12923); assay: pNPP inhibition assay against FAP-1; type: biochemical; conditions: pNPP at Km of the PTP
[16] = target: DEP-1 (Homo sapiens (Human), UniProt Q12913); assay: pNPP inhibition assay against DEP-1; type: biochemical; conditions: pNPP at Km of the PTP
[17] = target: Laforin (Homo sapiens (Human), UniProt O95278); assay: pNPP inhibition assay against Laforin; type: biochemical; conditions: pNPP at Km of the PTP
[18] = target: PTP-MEG2 (Homo sapiens (Human), UniProt P43378); assay: pNPP inhibition assay against PTP-MEG2; type: biochemical; conditions: pNPP at Km of the PTP
[19] = target: MKP3 (Homo sapiens (Human), UniProt Q16828); assay: pNPP inhibition assay against MKP3; type: biochemical; conditions: pNPP at Km of the PTP
[20] = target: CD45 (Homo sapiens (Human), UniProt P08575); assay: pNPP inhibition assay against CD45; type: biochemical; conditions: pNPP at Km of the PTP
[21] = target: CDC14A (Homo sapiens (Human), UniProt Q9UNH5); assay: pNPP inhibition assay against CDC14A; type: biochemical; conditions: pNPP at Km of the PTP
[22] = target: STEP (Homo sapiens (Human), UniProt P54829); assay: pNPP inhibition assay against STEP; type: biochemical; conditions: pNPP at Km of the PTP
[23] = target: VHR (Homo sapiens (Human), UniProt P51452); assay: pNPP inhibition assay against VHR; type: biochemical; conditions: pNPP at Km of the PTP
[24] = target: PTPα (Homo sapiens (Human), UniProt P18433); assay: pNPP inhibition assay against PTPα; type: biochemical; conditions: pNPP at Km of the PTP
[25] = target: PTPβ (Homo sapiens (Human), UniProt P23467); assay: biochemical; conditions: pNPP at Km of the PTP
[26] = target: PTPμ (Homo sapiens (Human), UniProt P28827); assay: pNPP inhibition assay against PTPμ; type: biochemical; conditions: pNPP at Km of the PTP
[27] = Log D by shake flask method; type: physicochemical; conditions: n-octanol and pH 7.4 PBS
Description: To determine the lipophilicity of our inhibitors, the Log D at pH 7.4 was measured using the shake flask method. […] The tubes were shaken for 8 hours, centrifuged at 10000 rpm for 5 minutes then n-octanol and phosphate buffered saline layers separated. […] The ratios of AUC of the peaks were used to calculate the Log D in accordance with the equation: Log D=Log10(AUC of octanol layer/AUC of phosphate buffered saline layer)

[28] = Kinetic solubility in pH 7.4 PBS; type: physicochemical; conditions: pH 7.4 PBS buffer
Description: The resulting mixture was stirred at 500 rpm for 90 minutes and then filtered using 0.45 μm PVDF membrane filter. After filtration, the concentration of corresponding compound was determined by HPLC, comparing the AUC obtained with that from a standard solution of the compound. Data represent the mean (t standard deviation, SD) of three separate experiments, performed in triplicate.

Chain of PTP-PEST (Q05209 28-293, species assumed): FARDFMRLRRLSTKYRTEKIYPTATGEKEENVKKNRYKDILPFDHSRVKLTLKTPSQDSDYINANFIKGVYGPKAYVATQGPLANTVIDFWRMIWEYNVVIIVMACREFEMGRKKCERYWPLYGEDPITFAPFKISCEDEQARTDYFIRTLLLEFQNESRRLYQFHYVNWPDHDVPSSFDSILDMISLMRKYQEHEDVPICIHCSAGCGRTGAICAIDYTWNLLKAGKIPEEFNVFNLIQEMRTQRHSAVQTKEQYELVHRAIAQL
Chain of SHP1 (P29350 244-515): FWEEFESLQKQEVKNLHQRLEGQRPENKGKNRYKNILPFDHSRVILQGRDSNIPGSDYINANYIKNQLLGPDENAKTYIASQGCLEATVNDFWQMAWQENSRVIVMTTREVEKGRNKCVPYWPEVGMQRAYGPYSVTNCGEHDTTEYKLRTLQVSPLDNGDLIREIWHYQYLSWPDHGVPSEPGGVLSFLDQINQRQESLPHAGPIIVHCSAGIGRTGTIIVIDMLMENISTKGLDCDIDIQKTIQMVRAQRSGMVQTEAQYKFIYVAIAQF
Chain of PTPγ (P23470 763-1445): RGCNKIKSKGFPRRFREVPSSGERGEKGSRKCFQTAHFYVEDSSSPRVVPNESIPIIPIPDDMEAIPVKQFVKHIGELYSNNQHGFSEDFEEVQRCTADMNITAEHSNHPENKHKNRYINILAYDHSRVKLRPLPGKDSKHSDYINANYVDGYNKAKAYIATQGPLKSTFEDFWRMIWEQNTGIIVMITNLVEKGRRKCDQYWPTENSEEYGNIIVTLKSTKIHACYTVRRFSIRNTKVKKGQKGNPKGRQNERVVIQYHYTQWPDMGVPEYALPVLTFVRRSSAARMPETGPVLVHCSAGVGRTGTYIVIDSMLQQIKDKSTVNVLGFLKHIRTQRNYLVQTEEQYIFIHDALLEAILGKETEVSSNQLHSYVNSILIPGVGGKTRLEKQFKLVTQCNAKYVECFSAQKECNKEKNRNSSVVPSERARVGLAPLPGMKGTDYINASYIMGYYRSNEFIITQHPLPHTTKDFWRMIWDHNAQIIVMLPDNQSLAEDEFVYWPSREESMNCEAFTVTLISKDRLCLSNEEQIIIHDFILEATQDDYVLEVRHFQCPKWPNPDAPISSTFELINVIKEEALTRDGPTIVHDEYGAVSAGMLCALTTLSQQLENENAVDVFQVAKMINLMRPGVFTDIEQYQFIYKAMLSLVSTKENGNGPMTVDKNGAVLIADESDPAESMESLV
Chain of SHP2 (Q06124 247-517): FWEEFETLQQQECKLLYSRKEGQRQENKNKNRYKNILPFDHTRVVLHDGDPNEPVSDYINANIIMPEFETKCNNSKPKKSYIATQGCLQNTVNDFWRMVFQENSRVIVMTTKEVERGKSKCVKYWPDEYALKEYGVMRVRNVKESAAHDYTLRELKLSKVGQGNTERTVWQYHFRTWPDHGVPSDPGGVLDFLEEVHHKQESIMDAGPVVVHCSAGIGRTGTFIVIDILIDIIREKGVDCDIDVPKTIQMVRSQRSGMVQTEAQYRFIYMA
Chain of LYP (Q9Y2R2 24-289, species assumed): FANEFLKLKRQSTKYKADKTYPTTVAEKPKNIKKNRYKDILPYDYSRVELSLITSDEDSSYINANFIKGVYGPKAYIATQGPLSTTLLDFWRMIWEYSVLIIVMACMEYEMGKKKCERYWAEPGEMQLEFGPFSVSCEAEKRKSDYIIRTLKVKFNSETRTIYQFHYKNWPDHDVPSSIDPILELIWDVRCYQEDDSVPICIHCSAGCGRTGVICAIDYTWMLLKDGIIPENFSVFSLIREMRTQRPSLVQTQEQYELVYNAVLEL
Chain of PTP1B (P18031 3-277): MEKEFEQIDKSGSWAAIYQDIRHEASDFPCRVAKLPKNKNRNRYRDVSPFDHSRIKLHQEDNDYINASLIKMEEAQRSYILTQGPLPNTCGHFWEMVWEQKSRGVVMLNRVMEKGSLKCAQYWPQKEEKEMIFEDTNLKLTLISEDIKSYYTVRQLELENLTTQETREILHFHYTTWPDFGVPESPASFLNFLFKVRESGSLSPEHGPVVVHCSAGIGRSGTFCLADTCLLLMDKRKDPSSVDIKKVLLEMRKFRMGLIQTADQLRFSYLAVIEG
Chain of MKP5 (Q9Y6W6 321-464, species assumed): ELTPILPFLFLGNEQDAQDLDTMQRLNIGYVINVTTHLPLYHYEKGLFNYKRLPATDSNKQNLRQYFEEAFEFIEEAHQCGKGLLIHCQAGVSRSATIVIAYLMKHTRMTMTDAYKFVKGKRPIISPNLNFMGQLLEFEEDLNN
Chain of TC-PTP (P17706 5-275): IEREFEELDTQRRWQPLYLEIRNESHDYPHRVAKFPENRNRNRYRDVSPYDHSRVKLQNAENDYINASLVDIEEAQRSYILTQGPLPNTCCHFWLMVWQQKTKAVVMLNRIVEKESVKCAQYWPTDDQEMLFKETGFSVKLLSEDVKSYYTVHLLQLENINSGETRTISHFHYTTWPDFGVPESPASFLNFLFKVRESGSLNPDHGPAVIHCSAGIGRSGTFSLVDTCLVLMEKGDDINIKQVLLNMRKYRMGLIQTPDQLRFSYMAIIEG
Chain of mPTPB (I6WXK4 whole entry, looked up): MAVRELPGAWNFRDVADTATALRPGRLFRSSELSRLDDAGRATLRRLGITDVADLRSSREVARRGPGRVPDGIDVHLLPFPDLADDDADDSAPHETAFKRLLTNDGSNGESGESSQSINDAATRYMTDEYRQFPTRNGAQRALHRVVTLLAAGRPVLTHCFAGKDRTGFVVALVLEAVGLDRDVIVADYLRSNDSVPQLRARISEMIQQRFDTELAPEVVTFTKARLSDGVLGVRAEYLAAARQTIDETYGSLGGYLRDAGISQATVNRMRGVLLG
Chain of PTP-MEG2 (P43378 303-574): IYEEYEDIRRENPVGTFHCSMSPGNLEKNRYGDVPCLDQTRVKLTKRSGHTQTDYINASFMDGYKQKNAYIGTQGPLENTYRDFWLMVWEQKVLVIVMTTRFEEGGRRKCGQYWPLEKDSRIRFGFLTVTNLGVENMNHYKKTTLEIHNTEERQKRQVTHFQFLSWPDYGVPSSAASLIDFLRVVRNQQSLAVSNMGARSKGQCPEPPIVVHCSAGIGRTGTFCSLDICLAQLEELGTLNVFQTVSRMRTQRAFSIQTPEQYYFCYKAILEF
Chain of HePTP (P35236 97-350): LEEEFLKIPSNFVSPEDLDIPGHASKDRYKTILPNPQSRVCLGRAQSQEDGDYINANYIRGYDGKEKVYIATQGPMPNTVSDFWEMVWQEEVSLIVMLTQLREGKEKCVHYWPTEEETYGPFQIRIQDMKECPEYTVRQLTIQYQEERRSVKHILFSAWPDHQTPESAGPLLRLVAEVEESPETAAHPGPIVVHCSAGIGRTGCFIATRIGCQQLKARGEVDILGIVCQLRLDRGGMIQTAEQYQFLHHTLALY
Chain of MKP3 (Q16828 206-349, species assumed): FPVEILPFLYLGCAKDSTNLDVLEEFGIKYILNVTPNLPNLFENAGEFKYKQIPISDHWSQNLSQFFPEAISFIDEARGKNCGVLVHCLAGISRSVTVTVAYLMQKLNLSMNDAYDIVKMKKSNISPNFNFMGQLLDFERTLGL
Chain of Laforin (O95278 156-323, species assumed): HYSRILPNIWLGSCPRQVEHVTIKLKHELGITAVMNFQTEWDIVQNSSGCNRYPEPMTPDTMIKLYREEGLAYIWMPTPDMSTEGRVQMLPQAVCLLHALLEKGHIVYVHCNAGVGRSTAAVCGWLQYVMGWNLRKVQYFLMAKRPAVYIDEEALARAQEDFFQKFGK
Chain of LMPTP-1 (P24666 whole entry, looked up): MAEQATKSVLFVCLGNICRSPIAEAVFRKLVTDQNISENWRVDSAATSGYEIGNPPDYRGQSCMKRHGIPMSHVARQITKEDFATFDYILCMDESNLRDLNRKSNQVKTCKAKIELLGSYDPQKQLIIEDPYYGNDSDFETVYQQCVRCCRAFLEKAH
Chain of PTPμ (P28827 900-1154): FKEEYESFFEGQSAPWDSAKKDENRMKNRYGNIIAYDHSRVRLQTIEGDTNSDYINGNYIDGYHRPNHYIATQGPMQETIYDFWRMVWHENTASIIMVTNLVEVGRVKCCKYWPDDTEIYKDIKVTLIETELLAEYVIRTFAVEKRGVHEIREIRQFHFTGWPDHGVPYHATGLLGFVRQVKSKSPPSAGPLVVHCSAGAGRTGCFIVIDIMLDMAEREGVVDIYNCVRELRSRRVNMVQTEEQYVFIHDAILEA
Chain of PTPβ (P23467 1703-1963): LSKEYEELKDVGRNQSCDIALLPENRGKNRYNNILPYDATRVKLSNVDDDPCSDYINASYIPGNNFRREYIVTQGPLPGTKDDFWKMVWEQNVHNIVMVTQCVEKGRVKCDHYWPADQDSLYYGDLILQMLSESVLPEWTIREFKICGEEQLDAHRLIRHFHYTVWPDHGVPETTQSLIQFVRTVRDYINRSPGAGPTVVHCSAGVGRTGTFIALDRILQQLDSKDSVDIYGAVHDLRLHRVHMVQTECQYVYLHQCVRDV
Chain of CDC14A (Q9UNH5 179-336, species assumed): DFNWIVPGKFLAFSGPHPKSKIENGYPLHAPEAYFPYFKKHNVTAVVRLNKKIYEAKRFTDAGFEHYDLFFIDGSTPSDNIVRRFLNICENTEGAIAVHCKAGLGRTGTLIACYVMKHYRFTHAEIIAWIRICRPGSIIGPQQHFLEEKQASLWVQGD
Chain of STEP (P54829 300-555, species assumed): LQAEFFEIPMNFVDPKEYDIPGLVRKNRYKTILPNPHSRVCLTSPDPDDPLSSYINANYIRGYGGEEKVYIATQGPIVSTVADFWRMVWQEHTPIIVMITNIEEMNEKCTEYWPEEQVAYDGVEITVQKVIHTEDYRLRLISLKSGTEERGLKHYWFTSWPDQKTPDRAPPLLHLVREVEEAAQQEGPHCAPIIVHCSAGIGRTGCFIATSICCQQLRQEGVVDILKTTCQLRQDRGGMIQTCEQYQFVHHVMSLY

Structure (SMILES) | IC50 [5] [µM] | IC50 [6] [µM] | IC50 [7] [µM] | IC50 [9] [µM] | IC50 [10] [µM] | IC50 [11] [µM] | IC50 ([2]; pNPP at Km of the PTP) [µM] | IC50 ([3]; pNPP at Km of the PTP) [µM] | IC50 ([4]; pNPP at Km of the PTP) [µM] | Microsome Stability, % remaining [12] [%] | solubility (in words) [13] | other results
CN(C)c1cc(O)c(C(=O)O)cc1C#Cc1cccc(NC(=O)C(=O)O)c1 [Compound 4g, 5-((3-(carboxyformamido)phenyl)ethynyl)-4-(dimethylamino)-2-hydroxybenzoic Acid] | > 50 | > 50 | > 50 | > 50 | > 50 | > 50 | – | – | – | – | – | IC50 [1]: 0.16 µM; IC50 [2]: 45.1 ± 4.5 µM; IC50 [3]: 47.5 ± 3.5 µM; IC50 [4]: 38.5 ± 4.2 µM; IC50 [8]: 34.5 µM
O=C(O)C(=O)Nc1ccc(C#Cc2ccc(C(F)(F)F)cc2Cl)cc1 [Compound 4t, 2-((4-((2-chloro-4-(trifluoromethyl)phenyl)ethynyl)phenyl)amino)-2-oxoacetic Acid] | > 30 | > 30 | > 30 | > 30 | > 30 | > 30 | > 30 | > 30 | > 30 | 56 ± 1.5 | – | –
O=C(O)C(=O)Nc1ccc(C#Cc2ccc3ccccc3c2)cc1 [Compound 4q, 2-((4-(naphthalen-2-ylethynyl)phenyl)amino)-2-oxoacetic Acid] | – | – | – | – | – | – | > 50 | > 50 | > 50 | – | poor solubility | –
CC(C)(C)c1ccc(C#Cc2ccc(NC(=O)C(=O)O)cc2)cc1 [Compound 4h, 2-((4-((4-(tert-butyl)phenyl)ethynyl)phenyl)amino)-2-oxoacetic Acid] | – | – | – | – | – | – | > 50 | > 50 | > 50 | 27 ± 2.4 | – | IC50 ([1]; pNPP assay, pH 7.0, 3.0 mM pNPP): 0.026 ± 0.005 µM; microsomal stability ranking ([12]; mouse liver microsomes, last time point): least stable
O=C(O)C(=O)Nc1ccc(C#Cc2ccc(OCc3ccccc3)cc2)cc1 [Compound 4r, 2-((4-((4-(benzyloxy)phenyl)ethynyl)phenyl)amino)-2-oxoacetic Acid] | – | – | – | – | – | – | 38.9 ± 5 | 15.3 ± 2.1 | 16.8 ± 3.3 | – | poor solubility | –
O=C(O)C(=O)Nc1ccc(C#Cc2ccc(C(F)(F)F)cc2)cc1 [Compound 4k, 2-oxo-2-((4-((4-(trifluoromethyl)phenyl)ethynyl)phenyl)amino)acetic Acid] | > 50 | > 50 | > 30 | > 30 | > 30 | > 50 | > 50 | > 50 | > 50 | 38 ± 1.6 | – | IC50 [14]: > 50 µM; IC50 [15]: > 30 µM; IC50 [16]: > 30 µM; IC50 [17]: > 30 µM; IC50 [18]: > 30 µM; IC50 [19]: > 30 µM; IC50 [20]: > 30 µM; IC50 [21]: > 30 µM; IC50 [22]: > 30 µM; IC50 [23]: > 30 µM; IC50 [24]: > 30 µM; IC50 [25]: > 30 µM; IC50 [26]: > 30 µM; LogD [27]: 1.97; Aq. Sol (μM), kinetic solubility [28]: 22.4 µM
